Data reported in US4981873A, “Substituted sulphonamides, pharmaceuticals thereof and methods of using them” (Boehringer Mannheim GmbH, priority 1988, dated 1991).
Where two headings read alike, the source gives them in different places.

Assays:
[1] = test system: thrombocyte aggregation (U 46619-induced); assay: TX antagonistic effect: inhibition of U 46619-induced thrombocyte aggregation in platelet-rich plasma (Born and Cross); format: cell-based; conditions: human platelet-rich plasma, citrate, aggregation followed over 5 minutes, read-out: Thromboxane Aggregation IC50
From the text: 1. TX Antagonistic Effect of Human […]
The thrombocyte aggregation is investigated by the method of Born and Cross (J. Physiol. 168, 178 (1963) in platelet-rich plasma of healthy blood donors. To inhibit clotting, the blood is mixed with 3.2% citrate in a ratio by volume of 1:9.
To induce thrombocyte aggregation, U 46619 (Upjohn & Co., Kalamazoo, USA), which is a stable analog of the prostaglandin endoperoxide […], is used. U 46619 was characterized as a selective thromboxane mimetic (Coleman et al., Brit. J. Pharmacol. 68, 127 P., 1980).
The aggregation test is carried out in a 4-channel aggregometer (Profiler® of the Bio/Data Co., USA). The course of the aggregation is followed over a period of 5 minutes. At the end of the test, the degree of aggregation attained is printed out. These values, which are obtained in the presence of different concentrations of the substance to be tested, are used for the determination of the IC50 for the TX antagonistic effect. The effectiveness varies inversely with the IC50 value.

[2] = test system: U 46619-Induced Pulmonary Embolism; assay: Preventing the U 46619-induced pulmonary embolism (survival rate of mouse); format: in vivo; conditions: male NMRI mice, lethal U 46619 injected i.v. (tail vein) after 4 hours; for responders at 25 mg/kg: Mus musculus, iv; for Survival Rate of Mouse 1 mg/kg, 4 h in %: 1 mg/kg by stomach tube
Procedure: 2. Preventing the U 46619-Induced Pulmonary Embolism
Male NMRI mice, with a body weight of 25 g. are used. The test substance is suspended in 1% methylcellulose and administered to the experimental animals with the help of a stomach tube. The provocation test consists of injecting the lethal dose (800-1000/μg/kg) of the thromboxane mimetic (U 46619 of the Upjohn Co.) rapidly into the tail vein. The duration of the specific antagonistic effect is tested by pretreating the animals with 25 mg or 1 mg/kg of the different test substances and injecting U 46619 after 4 hours. The survival rate indicates how many of the animals used have survived the injection of the thromboxane mimetic.

Row | Compound | IC50 ([1]; 5 min) [µM] | responders at 25 mg/kg ([2]; 25 mg/kg by stomach tube) [%] | Survival Rate of Mouse 1 mg/kg, 4 h in % [2] [%] | IC50 [1] [µM] | Survival Rate of Mouse 25 mg/kg, 4 h in % ([2]; 25 mg/kg by stomach tube) [%]
1 | COc1ccc(S(=O)(=O)NCCCCCSC(C)(C)C(=O)O)cc1 [Example 9.2, 8-(4-Methoxybenzenesulphonamido)-2,2-dimethyl-3-thiaoctanoic acid] | 100 | 60 | 20 | – | –
2 | CC(C)(CCSCCCNS(=O)(=O)c1ccc(Cl)cc1)CC(=O)O [Example 11.2, 9-(4-Chlorobenzenesulphonamido)-3,3-dimethyl-6-thianonanoic acid] | 100 | 80 | 0 | – | –
3 | O=C(O)CSCCC/C=C\CNS(=O)(=O)c1ccc(Cl)cc1 [Example 7, (Z)-9-(4-Chlorobenzenesulphonamido)-3-thia-7-enenonanoic acid] | 1.4 | 100 | 60 | – | –
4 | CC(C)(SCCCCCNS(=O)(=O)c1ccc(Cl)cc1)C(=O)O [Example 9, 8-(4-Chlorobenzenesulphonamido)-2,2-dimethyl-3-thiaoctanoic acid] | 5.2 | 40 | – | – | –
5 | O=C(O)CSCCCCCCNS(=O)(=O)c1ccc(Cl)cc1 [Example 4, 9-(4-Chlorobenzenesulphonamido)-3-thianonanoic acid] | 1.3 | 40 | – | – | –
6 | CC(C)(CCSCCNS(=O)(=O)c1ccc(Cl)cc1)C(=O)O [Example 8, 7-(4-Chlorobenzenesulphonamido)-2,2-dimethyl-5-thiaheptanoic acid] | 13 | 40 | – | – | –
7 | CC(C)(CCCSCCCNS(=O)(=O)c1ccc(Cl)cc1)C(=O)O [Example 11, 9-(4-Chlorobenzenesulphonamido)-2,2-dimethyl-6-thianonanoic acid] | 60 | 80 | 0 | – | –
8 | CC(C)(CCSCCNS(=O)(=O)c1ccc(Cl)cc1)CC(=O)O [Example 8.3, 8-(4-Chlorobenzenesulphonamido)-3,3-dimethyl-6-thiaoctanoic acid] | 5 | 40 | – | – | –
9 | O=C(O)C[S+]([O-])CCCCCCNS(=O)(=O)c1ccc(Cl)cc1 (stereo not shown) [Example 5, 9-(4-Chlorobenzenesulphonamido)-3-thianonanoic acid 3-oxide] | 2.1 | 40 | – | – | –
10 | 9-(4-Chlorobenzenesulphonamido)-3-thianonanoic acid [Example 6] | – | – | 100 | 3.4 | 80
